Assay results published in patent US7625891B2, “Heterocylic antiviral compounds” (Roche Palo Alto LLC, priority 2007, dated 2009).

Columns and labels:
CCR5 [1] = target: T1, CCR5 (Homo sapiens, UniProt P51681); experiment: CCR5-mediated CCF (cell-cell fusion) assay, Hela-R5 / CEM-NKr-CCR5-Luc, luciferase readout; format: cell-based; parameters: host or cells: CEM-NKr-CCR5-Luc cells; settings: 24 hrs co-culture
Procedure: The capacity for novel compounds of the present invention to bind to the CCR5 receptor and thereby antagonize CCR5 function can be evaluated with assay systems known in the art. The capacity of compounds of the present invention to inhibit infection of CD4^+/CCR5^+ expressing cells can be determined using a cell-cell fusion assay as described in example 8 or an antiviral assay as described in example 9.
CCF assay was performed as described before (C. Ji, J. Zhang, N. Cammack and S. Sankuratri, J. Biomol. Screen. 2006 11(6):652-663). Hela-R5 cells (express gp160 from R5-tropic virus and HIV-1 Tat) were plated in 384 well white culture plates (BD Bioscience, Palo Alto, Calif.) at […] per well in phenol red-free Dulbecco's Modified Eagle Medium (DMEM) supplemented with 10% FBS, 1× Pen-Strep, 300 μg/mL G418, 100 μg/mL hygromycin, and 1 μg/mL Doxycycline (Dox) (BD Bioscience, Palo Alto, Calif.), using Multimek (Beckman, Fullerton, Calif.) and incubated at 37° C. overnight to induce the expression of gp160. Ten μL diluted compounds in medium containing 5% DMSO were added to the cells, followed by the addition of CEM-NKr-CCR5-Luc (obtained from NIH AIDS Research & Reference Reagents Program) that expresses CD4 and CCR5 and carries a […] long terminal repeat (LTR)-driven luciferase reporter gene at 1.5×10^4 cells/15 μL/well and incubated for 24 hrs. At the end of co-culture, 15 μL of Steady-Glo luciferase substrate was added into each well, and the cultures were sealed and gently shaken for 45 min. The luciferase activity were measured for 10 sec per well as luminescence by using 16-channel TopCount NXT (PerkinElmer, Shelton, CT) with 10 min dark adaptation and the readout is count per second (CPS). For the drug interaction experiments, small molecule compounds or antibodies were serially diluted in serum-free and phenol red-free RPMI containing 5% DMSO (CalBiochem, La Jolla, Calif.) and 1× Pen-Strep. Five μL each of the two diluted compound or mAb to be tested for drug-drug interactions were added to the Hela-R5 cells right before the addition of target cells.

NLBal pseudotyped HIV-1 = experiment: microbe, parasite or virus in culture; format: cell-based; settings: Human immunodeficiency virus 1, JC53BL, 72 h
Procedure: The sensitivity of a recombinant HIV-1 virus pseudotyped with the envelope proteins of the CCR5-tropic virus NLBal to test compounds was determined in a Luciferase reporter assay using JC53BL cells. NLBal pseudotyped HIV-1 was generated by calcium phosphate transfection of 293T cells (ATCC) with equal amounts of DNA of an envelope-deleted HIV-1 plasmid and of a NLBal envelope expression plasmid. The media (DMEM, 10% fetal bovine serum, 1% Penicillin/streptomycin, 1% Glutamine, all Gibco) was changed 16 h post-transfection and virus containing supernatant was harvested 48 h post-transfection. To determine the sensitivity of NLBal pseudotyped HIV-1, 25.000 JC53BL cells (NIH AIDS Reagent Program) were infected with NLBal pseudotyped HIV-1 in presence of a drug gradient in white 96 well plates (Greiner Bio-one). The volume was adjusted to 200 μL using assay media (DMEM, 10% fetal bovine serum, 1% Penicillin/streptomycin, 1% Glutamine). After incubation at 37° C., 90% relative humidity, 5% CO2 for 3 days, 50 μL of Steady-Glo® Luciferase reagent (Promega) was added, incubated for 5 min at RT and luminescence was measured using a luminometer (Luminoskan, Thermo). The 50% and 90% inhibitory concentrations were calculated using Microsoft XL Fit 4 software.

CCR5 [2] = target: T1, CCR5; experiment: Human CCR5 receptor-ligand binding assay (125I RANTES, CHO-Gα16-hCCR5 cells); parameters: expressed in transfected cells
Procedure: The construct was transfected into CHO-Gα16 cells by using Fugene Reagent (Roche).
Adherent cells in […] tissue culture flask (ca. 90% confluent) were harvested using 1 mM EDTA in PBS (phosphate-buffered saline) without Ca^2+ and Mg^2+. Cells were washed twice with PBS containing no Ca^2+ and Mg^2+.
Eighty μl CHO-Gα16-hCCR5 (1×10^6/mL) cells were added to 96 well plates.
The compound dilutions were made in PBS, 1% BSA. Total reaction volume was 100 μl per well. The test compounds were added to the cells prior to the addition of radioligand.
After incubation, the cells were harvested onto GF/C filter plates using Packard cell harvester. Filters were pretreated with 0.3% PEI/0.2% BSA for 30 min. The filter plate was washed rapidly 5 times with 25 mM HEPES, 500 mM NaCl, 1 mM CaCl2 and 5 mM MgCl2 adjusted to pH 7.1. Plates were dried in oven (70° C.) for 20 min, added with 40 μl scintillation fluid and sealed with Packard TopSeal-A. Packard Top Count was used to measure of the radioactivity for 1 min per well.
Total binding was determined with control wells added with radioisotope and buffer and the non-specific binding was determined using an excess cold RANTES to some of the control wells. Specific binding was determined by subtracting the non-specific form total binding. […] IC50 values were determined using varying concentrations of the test ligand in triplicates and the data was analyzed using GraphPad Prism (GraphPad, San Diego, Calif.).

[3] = tested on: collagen-induced arthritis; settings: collagen-induced arthritis model; cited from earlier work
HIV = settings: cited from earlier work
[4] = specific 125I RANTES binding, CHO-Gα16-hCCR5 cells, read-out: IC50

T1 sequence (P51681 whole entry, the tested form may be a part): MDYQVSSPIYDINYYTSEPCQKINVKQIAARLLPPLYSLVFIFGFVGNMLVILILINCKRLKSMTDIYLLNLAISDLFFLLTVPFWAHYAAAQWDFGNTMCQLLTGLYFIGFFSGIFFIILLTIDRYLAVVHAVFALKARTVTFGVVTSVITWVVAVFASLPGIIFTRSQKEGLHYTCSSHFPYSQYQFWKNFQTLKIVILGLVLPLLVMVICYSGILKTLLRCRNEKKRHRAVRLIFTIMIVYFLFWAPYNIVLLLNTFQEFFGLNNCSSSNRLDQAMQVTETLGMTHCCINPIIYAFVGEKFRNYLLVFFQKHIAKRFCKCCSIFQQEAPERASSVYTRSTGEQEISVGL

Molecule | IC50 (CCR5 [1]) [nM] | IC50 (NLBal pseudotyped HIV-1) [nM] | IC50 (CCR5 [2]; [4]) [nM] | also measured
CCCCC1CN(CC2CCN(C(C)=O)CC2)C(=O)OC12CCN(C1(C)CCN(C(=O)c3c(C)ncnc3C)CC1)CC2 (stereo not shown) [III-1, 3-(1-Acetyl-piperidin-4-ylmethyl)-5-butyl-9-[1-(4,6-dimethyl-pyrimidine-5-carbonyl)-4-methyl-piperidin-4-yl]-1-oxa-3,9-diaza-spiro[5.5]undecan-2-one] | 25.2 |  |  | 
CCCC[C@H]1CN(C[C@H]2COCCO2)C(=O)OC12CCN(C1(C)CCN(C(=O)c3c(C)cc(C#N)nc3C)CC1)CC2 [II-10] | 1 | 2.6 | 17.2 | 
CCCC[C@H]1CN(CC2CCN(C(=O)OC)CC2)C(=O)OC12CCN(C1(C)CCN(C(=O)c3c(C)ncnc3C)CC1)CC2 [III-6] |  |  | 46.5 | 
CCCCC1CN(C[C@H]2CC[C@H](OCC)CC2)C(=O)OC12CCN(C1(C)CCN(C(=O)c3c(C)ncnc3C)CC1)CC2 (stereo partly drawn) [Compound I-7, 5-Butyl-9-[1-(4,6-dimethyl-pyrimidine-5-carbonyl)-4-methyl-piperidin-4-yl]-3-(trans-4-ethoxy-cyclohexylmethyl)-1-oxa-3,9-diaza-spiro[5.5]undecan-2-one] |  |  |  | melting point: 188.3 to 189.7 °C
CCCC[C@H]1CN(CC2CCN(S(C)(=O)=O)CC2)C(=O)OC12CCN(C1(C)CCN(C(=O)c3c(C)noc3C(F)(F)F)CC1)CC2 [III-23] | < 2.5 | 6 | 38.8 | 
CCCCC1CN(C[C@H]2CC[C@H](OC)CC2)C(=O)OC12CCN(C1(C)CCN(C(=O)c3c(C)ncnc3C)CC1)CC2 (stereo partly drawn) [Compound I-3, 5-Butyl-9-[1-(4,6-dimethyl-pyrimidine-5-carbonyl)-4-methyl-piperidin-4-yl]-3-(trans-4-methoxy-cyclohexylmethyl)-1-oxa-3,9-diaza-spiro[5.5]undecan-2-one] |  |  |  | melting point: 150.8 to 152.9 °C
CCCC[C@H]1CN(C[C@H]2[C@@H]3CN(C(=O)OC)C[C@@H]32)C(=O)OC12CCN(C1(C)CCN(C(=O)c3c(C)noc3C(F)(F)F)CC1)CC2 [III-20] | < 2.5 | 3 | 14 | 
CCCC[C@H]1CN(CC2CCN(CC(F)F)CC2)C(=O)OC12CCN(C1(C)CCN(C(=O)c3c(C)cc(C#N)nc3C)CC1)CC2 [III-12] |  |  |  | IC50 (CCR5 [2]): 49.4 nM
CCCC[C@H]1CN(C[C@H]2[C@@H]3COC[C@@H]32)C(=O)OC12CCN(C1(C)CCN(C(=O)c3c(C)cc(C(F)F)nc3C)CC1)CC2 [II-4] |  |  | 10.8 | 
CCCC[C@H]1CN(C[C@H]2C[C@H]3CC[C@@H](C2)N3C(=O)OC)C(=O)OC12CCN(C1(C)CCN(C(=O)c3c(C)ncnc3C)CC1)CC2 [III-22] | 3 | 2.2 | 21.2 | 
CCCCC1CN(C[C@H]2CC[C@@H](OCOC)CC2)C(=O)OC12CCN(C1(C)CCN(C(=O)c3c(C)ncnc3C)CC1)CC2 (stereo partly drawn) [Compound I-8, 5-Butyl-9-[1-(4,6-dimethyl-pyrimidine-5-carbonyl)-4-methyl-piperidin-4-yl]-3-(cis-4-methoxymethoxy-cyclohexylmethyl)-1-oxa-3,9-diaza-spiro[5.5]undecan-2-one] |  | 5.2 |  | 
CCCC[C@H]1CN(C2CCC(F)(F)CC2)C(=O)OC12CCN(C1(C)CCN(C(=O)c3c(C)ncnc3C)CC1)CC2 [IV-7, (S)-5-Butyl-3-(4,4-difluoro-cyclohexyl)-9-[1-(4,6-dimethyl-pyrimidine-5-carbonyl)-4-methyl-piperidin-4-yl]-1-oxa-3,9-diaza-spiro[5.5]undecan-2-one] |  |  | 19.2 | 
Cc1ccc(-c2ccc3c(c2)C=C(C(=O)Nc2ccc(C[N+](C)(C)C4CCOCC4)cc2)CCC3)cc1.[Cl-] [TAK-779] |  |  |  | incidence and severity of arthritis [3]: reduce both the incidence and severity of arthritis; infiltration of inflammatory CCR5+ T-cells into the joint [3]: inhibited
CCCCC1CN(CC2CCCN(C(C)=O)C2)C(=O)OC12CCN(C1(C)CCN(C(=O)c3c(C)ncnc3C)CC1)CC2 (stereo not shown) [III-2] | 17.4 |  |  | 
CCCC[C@H]1CN(CC2COC3OCCC23)C(=O)OC12CCN(C1(C)CCN(C(=O)c3c(C)ncnc3C)CC1)CC2 (single isomer, unassigned) [II-6] |  |  | 38 | 
RANTES: CC chemokine, naturally occurring ligand that can stimulate the CCR5 receptor (protein, UniProt P13501 24-91, looked up) C-C motif chemokine 5: SPYSSDTTPCCFAYIARPLPRAHIKEYFYTSGKCSNPAVVFVTRKNRQVCANPEKKWVREYINSLEMS |  |  |  | HIV entry into the cells (HIV): block HIV entry into the cells
